Legend:
[1] = system: Ba/F3 CD74-ROS1 non mutant; test: Antiproliferation assay (Alamar Blue, 72 h); assay type: cell-based, mouse; conditions: Mus musculus, BaF3, 72 h, Ba/F3 cells, cell growth inhibition
Source text: (§1) To assess targeted degradation of ROS1 fusion proteins, we first established a mouse pro-B cell line Ba/F3 as a model expressing the CD74-ROS1 oncogene or CD74-ROS1 with clinically observed secondary/tertiary mutations. The Ba/F3 cell line is dependent on interleukin-3 for survival and proliferation. Upon transduction of oncogenic ROS1, Ba/F3 cells become independent of interleukin-3 but dependent on the transduced driver gene.
(§2) Ba/F3 immortalized murine bone marrow–derived pro-B cells were obtained from Creative Biogene (Shirley, NY) and cultured in RPMI supplemented with 10% FBS and IL3 (0.5 ng/mL). Ba/F3 cells expressing ROS1 variants were maintained in RPMI supplemented with 10% FBS and puromycin (0.7 mg/mL). […] Each compound was dissolved in DMSO and serially diluted in RPMI for cell culture experiments.
(§3) To assess the 72 h effect of drug treatment on cell proliferation, 2000 to 3000 cells were plated in replicates of three in 96-well plates. The plates were placed in an incubator at 37 °C, 5% CO2 for 72 h. Following drug treatments, the cells were incubated with the Alamar Blue Assay reagent (BioRad), 5 μL each well for 4 h at 37 °C and 5% CO2. Luminescence was measured on a multiplate reader and analyzed. […] IC50 values were determined using a nonlinear regression model with a sigmoidal dose response in GraphPad. The data were collected based on triplicate experiments, and presented as mean ± SD.
(§4) The resulting virus was used to infect Ba/F3 cells. After retroviral infection, Ba/F3 cells were selected by incubation with puromycin (0.7 mg/mL) for 2 weeks. For Ba/F3 cells infected by the CD74–ROS1 variants, IL3 was withdrawn from the culture medium at least 2 weeks before the experiments.

Ba/F3 ROS1-G2032R = test: Antiproliferation assay; assay type: cell-based, mouse; conditions: Mus musculus, BaF3; Ba/F3 cells, cell growth inhibition, 72 h
Source text: as §1, §2, §3, §4

ROS1 = ROS1 degradation in Ba/F3 cells (WES immunoblotting); assay type: cell-based; conditions: for DC50: concentration needed to reduce ROS1 protein by 50%, Ba/F3 cells; for Dmax (%) (ROS1): maximal degradation of ROS1 in Ba/F3 cells
Description: Protein levels were analyzed using a WES instrument according to the WES User Guide from ProteinSimple in duplicate experiments. The samples were mixed with the fluorescent 5 master mix (ProteinSimple) and then heated at 95 °C for 5 min. Boiled samples, biotinylated protein ladder, antibody diluent, Streptavidin-HRP, primary antibodies, ProteinSimple horseradish peroxidase conjugated antirabbit or antimouse secondary antibodies, luminol-peroxide, and wash buffer were loaded into the WES plate (Wes 12–230 kDa Prefilled Plates with Split Buffer, ProteinSimple). The plates and capillary cartridges were loaded into the WES instrument, and protein separation, antibody incubation, and imaging were performed according to manufacturer’s instructions. Compass software (ProteinSimple) was used to acquire the data and to generate the virtual blot image reconstruction and chemiluminescence signal intensity electropherograms. […] Protein levels are expressed as the AUC of the peak chemiluminescence intensity. Antibodies against phospho-ROS1(Tyr2274/2334) (E8F5J), ROS1 (D4D6(R)) were obtained from Cell Signaling Technology.

COc1cc(N2CCC(N3CCN(CC4CN(c5ccc6c(c5)CN(C5CCC(=O)NC5=O)C6=O)C4)CC3)CC2)ccc1Nc1ncc(Cl)c(Nc2ccccc2P(C)(C)=O)n1 (stereo not drawn) [9p, 3-(5-(3-((4-(1-(4-((5-Chloro-4-((2-(dimethylphosphoryl)phenyl)amino)pyrimidin-2-yl)amino)-3-methoxyphenyl)piperidin-4-yl)piperazin-1-yl)methyl)azetidin-1-yl)-1-oxoisoindolin-2-yl)piperidine-2,6-dione]
IC50 [1]: 15.3 ± 4.5 nM
IC50 (Ba/F3 ROS1-G2032R): 158 ± 81 nM
DC50 (ROS1): 20 nM
Dmax (%) (ROS1) (ROS1): 94%

Cc1cc(Nc2ncc(Cl)c(Nc3ccccc3S(=O)(=O)C(C)C)n2)c(OC(C)C)cc1C1CCN(CCNc2ccc3c(c2)C(=O)N(C2CCC(=O)NC2=O)C3=O)CC1 (stereo not drawn) [8h, 5-((2-(4-(4-((5-Chloro-4-((2-(isopropylsulfonyl)phenyl)amino)pyrimidin-2-yl)amino)-5-isopropoxy-2-methylphenyl)piperidin-1-yl)ethyl)amino)-2-(2,6-dioxopiperidin-3-yl)isoindoline-1,3-dione]
IC50 [1]: 128 ± 39 nM
IC50 (Ba/F3 ROS1-G2032R): 6630 ± 1800 nM
DC50 (ROS1): 145 nM
Dmax (%) (ROS1) (ROS1): 71%

Cc1cc(Nc2ncc(Cl)c(Nc3ccccc3S(=O)(=O)C(C)C)n2)c(OC(C)C)cc1C1CCN(C2CCN(CCNc3ccc4c(c3)C(=O)N(C3CCC(=O)NC3=O)C4=O)CC2)CC1 (stereo not drawn) [8k, 5-((2-(4-(4-((5-Chloro-4-((2-(isopropylsulfonyl)phenyl)amino)pyrimidin-2-yl)amino)-5-isopropoxy-2-methylphenyl)-[1,4′-bipiperidin]-1′-yl)ethyl)amino)-2-(2,6-dioxopiperidin-3-yl)isoindoline-1,3-dione]
IC50 [1]: 171 ± 26 nM
IC50 (Ba/F3 ROS1-G2032R): 8590 ± 1180 nM
DC50 (ROS1): 204 nM
Dmax (%) (ROS1) (ROS1): 89%

Cc1cc(Nc2ncc(Cl)c(Nc3ccccc3S(=O)(=O)C(C)C)n2)c(OC(C)C)cc1C1CCN(C2CCN(CC3CN(c4ccc5c(c4)C(=O)N(C4CCC(=O)NC4=O)C5=O)C3)CC2)CC1 (stereo not drawn) [8n, 5-(3-((4-(4-((5-Chloro-4-((2-(isopropylsulfonyl)phenyl)amino)pyrimidin-2-yl)amino)-5-isopropoxy-2-methylphenyl)-[1,4′-bipiperidin]-1′-yl)methyl)azetidin-1-yl)-2-(2,6-dioxopiperidin-3-yl)isoindoline-1,3-dione]
IC50 [1]: 713 ± 84 nM
IC50 (Ba/F3 ROS1-G2032R): 1150 ± 466 nM
DC50 (ROS1): 586 nM
Dmax (%) (ROS1) (ROS1): 63%

Cc1cc(Nc2ncc(Cl)c(Nc3ccccc3S(=O)(=O)C(C)C)n2)c(OC(C)C)cc1C1CCN(C2CCN(CC3CCN(c4ccc5c(c4)C(=O)N(C4CCC(=O)NC4=O)C5=O)CC3)CC2)CC1 (stereo not drawn) [8t, 5-(4-((4-(4-((5-Chloro-4-((2-(isopropylsulfonyl)phenyl)amino)pyrimidin-2-yl)amino)-5-isopropoxy-2-methylphenyl)-[1,4′-bipiperidin]-1′-yl)methyl)piperidin-1-yl)-2-(2,6-dioxopiperidin-3-yl)isoindoline-1,3-dione]
IC50 [1]: 147 ± 28 nM
IC50 (Ba/F3 ROS1-G2032R): > 10000 nM
DC50 (ROS1): 155 nM
Dmax (%) (ROS1) (ROS1): 81%

Cc1cc(Nc2ncc(Cl)c(Nc3ccccc3S(=O)(=O)C(C)C)n2)c(OC(C)C)cc1C1CCN(C2CCN(CCCNc3ccc4c(c3)C(=O)N(C3CCC(=O)NC3=O)C4=O)CC2)CC1 (stereo not drawn) [8l, 5-((3-(4-(4-((5-Chloro-4-((2-(isopropylsulfonyl)phenyl)amino)pyrimidin-2-yl)amino)-5-isopropoxy-2-methylphenyl)-[1,4′-bipiperidin]-1′-yl)propyl)amino)-2-(2,6-dioxopiperidin-3-yl)isoindoline-1,3-dione]
IC50 [1]: 598 ± 147 nM
IC50 (Ba/F3 ROS1-G2032R): > 10000 nM
DC50 (ROS1): 452 nM
Dmax (%) (ROS1) (ROS1): 54%

COc1cc(C2CCN(C3CCN(CC4CCN(c5ccc6c(c5)C(=O)N(C5CCC(=O)NC5=O)C6=O)CC4)CC3)CC2)ccc1Nc1ncc(Cl)c(Nc2ccccc2P(C)(C)=O)n1 (stereo not drawn) [9g, 5-(4-((4-(4-((5-Chloro-4-((2-(dimethylphosphoryl)phenyl)amino)pyrimidin-2-yl)amino)-3-methoxyphenyl)-[1,4′-bipiperidin]-1′-yl)methyl)piperidin-1-yl)-2-(2,6-dioxopiperidin-3-yl)isoindoline-1,3-dione]
IC50 [1]: 7.1 ± 0.9 nM
IC50 (Ba/F3 ROS1-G2032R): 221 ± 26 nM
DC50 (ROS1): 11 nM
Dmax (%) (ROS1) (ROS1): 88%

COc1cc(N2CCC(N3CCN(C(=O)CC4CCN(c5ccc(NC6CCC(=O)NC6=O)cc5)CC4)CC3)CC2)ccc1Nc1ncc(Cl)c(Nc2ccccc2P(C)(C)=O)n1 (stereo not drawn) [9u, 3-((4-(4-(2-(4-(1-(4-((5-Chloro-4-((2-(dimethylphosphoryl)phenyl)amino)pyrimidin-2-yl)amino)-3-methoxyphenyl)piperidin-4-yl)piperazin-1-yl)-2-oxoethyl)piperidin-1-yl)phenyl)amino)piperidine-2,6-dione]
IC50 [1]: 82 ± 9 nM
IC50 (Ba/F3 ROS1-G2032R): > 10000 nM
DC50 (ROS1): 101 nM
Dmax (%) (ROS1) (ROS1): 37%

COc1cc(N2CCC(N3CCN(C(=O)C4CCN(c5ccc(NC6CCC(=O)NC6=O)cc5)CC4)CC3)CC2)ccc1Nc1ncc(Cl)c(Nc2ccccc2P(C)(C)=O)n1 (stereo not drawn) [9v, 3-((4-(4-(4-(1-(4-((5-Chloro-4-((2-(dimethylphosphoryl)phenyl)amino)pyrimidin-2-yl)amino)-3-methoxyphenyl)piperidin-4-yl)piperazine-1-carbonyl)piperidin-1-yl)phenyl)amino)piperidine-2,6-dione]
IC50 [1]: 63 ± 24 nM
IC50 (Ba/F3 ROS1-G2032R): > 10000 nM
DC50 (ROS1): 76 nM
Dmax (%) (ROS1) (ROS1): 42%

COc1cc(N2CCN(c3ccc4c(c3)C(=O)N(C3CCC(=O)NC3=O)C4=O)CC2)ccc1Nc1ncc(Cl)c(Nc2ccccc2P(C)(C)=O)n1 (stereo not drawn) [9a, 5-(4-(4-((5-Chloro-4-((2-(dimethylphosphoryl)phenyl)amino)pyrimidin-2-yl)amino)-3-methoxyphenyl)piperazin-1-yl)-2-(2,6-dioxopiperidin-3-yl)isoindoline-1,3-dione]
IC50 [1]: 112 ± 17 nM
IC50 (Ba/F3 ROS1-G2032R): 251 ± 125 nM
DC50 (ROS1): 133 nM
Dmax (%) (ROS1) (ROS1): 68%

Cc1cc(Nc2ncc(Cl)c(Nc3ccccc3S(=O)(=O)C(C)C)n2)c(OC(C)C)cc1C1CCN(C2CCN(c3cccc4c3C(=O)N(C3CCC(=O)NC3=O)C4=O)CC2)CC1 (stereo not drawn) [8c, 4-(4-(4-((5-Chloro-4-((2-(isopropylsulfonyl)phenyl)amino)pyrimidin-2-yl)amino)-5-isopropoxy-2-methylphenyl)-[1,4′-bipiperidin]-1′-yl)-2-(2,6-dioxopiperidin-3-yl)isoindoline-1,3-dione]
IC50 [1]: 107 ± 16 nM
IC50 (Ba/F3 ROS1-G2032R): 1260 ± 93 nM
DC50 (ROS1): 143 nM
Dmax (%) (ROS1) (ROS1): 82%

COc1cc(N2CCN(c3ccc4c(c3)CN(C3CCC(=O)NC3=O)C4=O)CC2)ccc1Nc1ncc(Cl)c(Nc2ccccc2P(C)(C)=O)n1 (stereo not drawn) [9l, 3-(5-(4-(4-((5-Chloro-4-((2-(dimethylphosphoryl)phenyl)amino)pyrimidin-2-yl)amino)-3-methoxyphenyl)piperazin-1-yl)-1-oxoisoindolin-2-yl)piperidine-2,6-dione]
IC50 [1]: 6.6 ± 0.4 nM
IC50 (Ba/F3 ROS1-G2032R): 427 ± 32 nM
DC50 (ROS1): 8 nM
Dmax (%) (ROS1) (ROS1): 92%

Cc1cc(Nc2ncc(Cl)c(Nc3ccccc3S(=O)(=O)C(C)C)n2)c(OC(C)C)cc1C1CCN(C2CN(C3CCN(c4ccc5c(c4)C(=O)N(C4CCC(=O)NC4=O)C5=O)CC3)C2)CC1 (stereo not drawn) [8p, 5-(4-(3-(4-(4-((5-Chloro-4-((2-(isopropylsulfonyl)phenyl)amino)pyrimidin-2-yl)amino)-5-isopropoxy-2-methylphenyl)piperidin-1-yl)azetidin-1-yl)piperidin-1-yl)-2-(2,6-dioxopiperidin-3-yl)isoindoline-1,3-dione]
IC50 [1]: 40 ± 6 nM
DC50 (ROS1): 27 nM
Dmax (%) (ROS1) (ROS1): 93%
